Where “and” joins values, the source holds several entries; their conditions need not be identical. Equal entries are not always repeated.
What was measured:
[1] = test system: extracellular dopamine (DA) in the nucleus accumbens (NAcc); test: In vivo microdialysis in rat nucleus accumbens, dopamine; parameters: species or system Sprague Dawley rats; settings: 7 mg/kg I.P.
Procedure: (§1) Methods and Procedure: This study was conducted in compliance with previously described procedures to assure data integrity, adherence to GLP regulations, and standard preclinical study and surgery procedures. The in vivo microdialysis technique was applied to measure the over-time variations of DA, 5-HT, and NE extracellular (EC) concentrations in conscious, freely-moving Sprague Dawley rats. Levels of the neurotransmitters in microdialysis samples were determined using LC-MS/MS analysis. The experiment was also conducted with MDMA for comparative purposes.
(§2) As it relates to cannula implantation, the rats were anesthetized with isoflurane 4% in oxygen (2-2.5 L/min), then the isoflurane concentration 2-2.5% was maintained via a nose cone adapted to the stereotaxic apparatus. The rats were treated with meloxicam (0.2 mg/kg, subcutaneously, sc; Meloxidolor) and amoxicilline (150 mg/kg, sc, Betamox LA). The skull was then shaved and disinfected. Rats were then placed in a stereotaxic apparatus for small animals. One vertical guide cannula was inserted through a 1 mm hole drilled on the exposed skull. Coordinates, with respect to the bregma to target specific brain areas, followed indications from stereotaxic atlas of the rat brain. Specifically a guide cannula (MAB 4.12.IC, Agn Tho's AB, Lidinga, Sweden) was inserted in the NAcc (anteroposterior+1.6; lateral −1.6; dorsoventral −6.0). The guide cannula was then secured with dental cement and 2-4 screws. At the end of the surgery the animal was isolated in a single cage during recovery, for a period of at least one week, during which animal health conditions were checked twice daily and the weight recorded twice a week. Animals continued to be housed singly throughout the experiment. One day before the experiment the cannula stylet was removed and a microdialysis probe with a dialyzing length of 2 mm (MAB 4.12.2 Cu, Agn Tho's AB, Lidingo, Sweden) was inserted. Probes can be re-used 2 times for 2 experimental sessions after appropriate cleaning with fresh milliQ water.
(§3) Post-surgery, the rats were maintained in a heating chamber prior to waking up in order to avoid hypothermia that could be caused by anaesthesia. 5 mL of physiologic solution was subcutaneously administered immediately after surgery, and once/day for 2-3 days, if signs of dehydration are noticed. Meloxicam (Meloxidolor) 0.2 mg/kg was again administered subcutaneously the day after surgery as well as after 48 h after surgery together with Amoxicilline Long Acting (Betamox LA) 150 mg/kg. Health status and body weight was checked every day during the first week.
(§4) The animals were treated with the therapeutic compounds, and MDMA, or their vehicle (saline) according to a Latin square design over 5 separate experimental days (one day/week). The treatments were administered in a volume of 1 mL/kg intraperitoneally.
(§5) On the day of the experiment, each animal was taken into the laboratory in its home cage. Inlet tubing of the probe was attached to a dual quartz-lined two channel liquid swivel mounted on a low mass spring counterbalance arm which, in turn, was connected to a gas-tight syringe on a microinfusion pump. […] An equilibration period of about two hours of perfusion was allowed before collecting samples. Following the equilibration period, 4 basal samples were collected for each experimental animal followed by further 10 post-treatment samples. Samples were collected every 20 minutes (up to 3 hours and 20 minutes post-treatment) by means of a refrigerated auto-sampler (Univentor 820 Microsampler, AgnTho's, Sweden) maintained at +8 “C. At the end of all experimental sessions, 2 μL of 0.1% methylene blue solution was injected through the microdialysis probe, animals were euthanized, and their brains removed to confirm the correct probe-position.
(§6) As mentioned, the concentration of DA, 5-HT and NE in CSF samples were determined using an optimized method based on LC-MS/MS analysis. […]

[2] = test system: extracellular serotonin (5-HT) in the nucleus accumbens (NAcc); test: In vivo microdialysis in rat nucleus accumbens, serotonin; parameters: species or system Sprague Dawley rats; settings: 7 mg/kg I.P.; for peak 5-HT level: baseline = 100%; for Serotonin (5-HT) level (% from baseline): rat NAcc
Procedure: as §1, §2, §3, §4, §5, §6

SMILES | Dopamine (DA) level (% from baseline) ([1]; 0 min (basal sample)) [%] | Dopamine (DA) level (% from baseline) ([1]; 20 min post-admin) [%] | Dopamine (DA) level (% from baseline) ([1]; 40 min post-admin) [%] | Dopamine (DA) level (% from baseline) ([1]; 60 min post-admin) [%] | Dopamine (DA) level (% from baseline) ([1]; 80 min post-admin) [%] | Dopamine (DA) level (% from baseline) ([1]; 100 min post-admin) [%] | Dopamine (DA) level (% from baseline) ([1]; 120 min post-admin) [%] | Dopamine (DA) level (% from baseline) ([1]; 140 min post-admin) [%] | Dopamine (DA) level (% from baseline) ([1]; 160 min post-admin) [%] | Dopamine (DA) level (% from baseline) ([1]; 180 min post-admin) [%] | Dopamine (DA) level (% from baseline) ([1]; 200 min post-admin) [%] | Dopamine (DA) level (% from baseline) ([1]; −20 min (basal sample)) [%] | time of peak 5-HT level ([2]; rat NAcc microdialysis) [min] | Serotonin (5-HT) level (% from baseline) ([2]; 0 min (basal sample)) [%] | Serotonin (5-HT) level (% from baseline) ([2]; 20 min post-admin) [%] | Serotonin (5-HT) level (% from baseline) ([2]; 40 min post-admin) [%] | Serotonin (5-HT) level (% from baseline) ([2]; 60 min post-admin) [%] | Serotonin (5-HT) level (% from baseline) ([2]; 80 min post-admin) [%] | Serotonin (5-HT) level (% from baseline) ([2]; 100 min post-admin) [%] | Serotonin (5-HT) level (% from baseline) ([2]; 120 min post-admin) [%] | further results
CNC(C)Cc1ccc2c(c1)OCO2 (stereo not shown) [MDMA] | 93 | 113 | 381 | 520 | 448 | 399 | 396 | 357 | 324 | 293 | 278 | 107 | 60 | 98 | 135 | 2000 | 2232 | 1780 | 1545 | 1472 | peak 5-HT level ([2]; rat NAcc microdialysis): 2232%; Serotonin (5-HT) level (% from baseline) ([2]; 140 min post-admin): 1255%; Serotonin (5-HT) level (% from baseline) ([2]; 160 min post-admin): 1083%; Serotonin (5-HT) level (% from baseline) ([2]; 180 min post-admin, 7 mg/kg): 980% and 972%; Serotonin (5-HT) level (% from baseline) ([2]; 200 min post-admin): 871%; Serotonin (5-HT) level (% from baseline) ([2]; −20 min (basal sample)): 102%
COC(=O)c1ccc2c(c1)CC(N)C2 (stereo not shown) [CMP-405, 2-aminoindane-5-methylcarboxylate] | 99 | 134 | 122 | 139 | 117 | 123 | 113 | 99 | 98 | 96 | 107 | 101 | 60 | 97 | 114 | 353 | 289 | 182 | 157 | 140 | time at which 5-HT levels returned to baseline ([2]; rat NAcc microdialysis): 180 min; peak 5-HT level ([2]; rat NAcc microdialysis): 289%; Serotonin (5-HT) level (% from baseline) ([2]; 140 min post-admin): 115%; Serotonin (5-HT) level (% from baseline) ([2]; 160 min post-admin): 113%; Serotonin (5-HT) level (% from baseline) ([2]; 180 min post-admin): 100%; Serotonin (5-HT) level (% from baseline) ([2]; 200 min post-admin): 105%; Serotonin (5-HT) level (% from baseline) ([2]; −20 min (basal sample)): 103%
COc1ccc2c(c1)CC(N)C2 (stereo not shown) [MEAI, 5-methoxy-2-aminoindane] | 96 | 95 | 197 | 187 | 154 | 141 | 130 | 131 | 137 | 144 | 127 | 104 | 40 | 98 | 446 | 2365 | 2248 | 1391 | 1036 | 830 | peak 5-HT level ([2]; rat NAcc microdialysis, 7 mg/kg): 2365% and ~2500%; Serotonin (5-HT) level (% from baseline) ([2]; 140 min post-admin): 688%; Serotonin (5-HT) level (% from baseline) ([2]; 160 min post-admin): 564%; Serotonin (5-HT) level (% from baseline) ([2]; 180 min post-admin, 7 mg/kg): 470%; Serotonin (5-HT) level (% from baseline) ([2]; 200 min post-admin): 340%; Serotonin (5-HT) level (% from baseline) ([2]; −20 min (basal sample)): 102%

Source: US20260159474A1, “Aminoindane Compounds and Compositions and Methods of Their Therapeutic Use” (Solvonis Therapeutics Ireland Holdings Limited, priority 2021, published 2026)
